Experimental data reported in patent publication US5977133A, “Pyridone antibiotic with improved safety profile” (priority 1998, dated 1999).
Values after ≈ are worked out from the molar mass of the structure shown.

What was measured:
Type in all cases: cell-based
Providencia spp. = experiment: In vitro MIC, agar dilution
P. aeruginosa (CiproR) = experiment: In vitro MIC, agar dilution; conditions: Pseudomonas aeruginosa
S. aureus (CiproS) = experiment: In vitro MIC, agar dilution; conditions: Staphylococcus aureus
Enterobacter spp. = experiment: In vitro MIC, agar dilution; conditions: Enterobacter
C. perfringens = experiment: microbe, parasite or virus in culture; conditions: Clostridium perfringens
S. pyogenes = experiment: In vitro MIC, agar dilution; conditions: Streptococcus pyogenes
B. fragilis = experiment: In vitro MIC, agar dilution; conditions: Bacteroides fragilis
Klebsiella spp. = experiment: In vitro MIC, agar dilution
H. influenzae = experiment: In vitro MIC, agar dilution; conditions: Haemophilus influenzae, H. influenzae, 18 isolates
C. freundii = experiment: In vitro MIC, agar dilution; conditions: Citrobacter freundii
E. faecium (CiproS) = experiment: In vitro MIC, agar dilution; conditions: Enterococcus faecium, E. faecium (CiproS), 16 isolates
S. epidermidis (CiproS) = experiment: In vitro MIC, agar dilution; conditions: Staphylococcus epidermidis
P. mirabilis = experiment: In vitro MIC, agar dilution; conditions: Proteus mirabilis
E. faecalis (VanS) = experiment: In vitro MIC, agar dilution; conditions: Enterococcus faecalis
Salmonella spp. = experiment: In vitro MIC, agar dilution; conditions: 23 isolates
Procedure, shortened: (§1)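 MIC, the lowest compound level without growth versus a drug-free BHI control plate, with faint haze or scattered colonies scored as no growth. About 10^4 CFU was replicator-spotted from 1:100 dilutions, or 1:10 for slow-growing strains, and plates were read after ~20–24 h at 35–37 °C.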

E. coli = experiment: In vitro MIC, agar dilution; conditions: Escherichia coli, 25 isolates
Procedure, shortened: as §1

Enterococcus spp. (VanR) = experiment: In vitro MIC, agar dilution; conditions: Enterococcus spp. (VanR), 21 isolates
S. pneumoniae (PenR) = experiment: In vitro MIC, agar dilution; conditions: Streptococcus pneumoniae
Shigella spp. = experiment: microbe, parasite or virus in culture; conditions: read-out: MIC Range
S. pneumoniae (PenS) = experiment: In vitro MIC, agar dilution; conditions: Streptococcus pneumoniae
P. aeruginosa (CiproS) = experiment: In vitro MIC, agar dilution; conditions: Pseudomonas aeruginosa
S. aureus (CiproR) = experiment: In vitro MIC, agar dilution; conditions: Staphylococcus aureus, S. aureus (CiproR), 25 isolates
N. gonorrhoeae = experiment: In vitro MIC, agar dilution; conditions: Neisseria gonorrhoeae
S. epidermidis (CiproR) = experiment: In vitro MIC, agar dilution; conditions: Staphylococcus epidermidis, S. epidermidis (CiproR), 11 isolates
M. avium = experiment: In vitro MIC, agar dilution; conditions: Mycobacterium avium
E. faecium (CiproR) = experiment: In vitro MIC, agar dilution; conditions: Enterococcus faecium; E. faecium (CiproR), 2 isolates; read-out: MIC Range
M. pneumoniae = experiment: In vitro MIC, agar dilution; conditions: Mycoplasmoides pneumoniae; M. pneumoniae, 7 isolates; read-out: MIC Range
H. pylori = experiment: In vitro MIC, agar dilution; conditions: Helicobacter pylori
S. pneumoniae (CiproR) = experiment: In vitro MIC, agar dilution; conditions: Streptococcus pneumoniae; S. pneumoniae (CiproR), 3 isolates; read-out: MIC Range
C. difficile = experiment: In vitro MIC, agar dilution; conditions: Clostridioides difficile

SMILES: NC1CCN(c2c(F)cc3c(=O)c(C(=O)O)cn(C4CC4)c3c2Cl)C1 (stereo not drawn) [Clinafloxacin, clinafloxacin]
- MIC90 (Providencia spp.; Providencia): 0.03 mg/L (≈ 0.082 µM)
- MIC50 (Providencia spp.; Providencia spp., 28 isolates, read-out: MIC50): 0.015 mg/L (≈ 0.041 µM)
- MIC (Providencia spp.; Providencia spp., 28 isolates, read-out: MIC Range): 0.008 to 0.12 mg/L (≈ 0.0219 to 0.328 µM)
- MIC (P. aeruginosa (CiproR); read-out: MIC Range): 2 to 32 mg/L (≈ 5.47 to 87.5 µM)
- MIC50 (P. aeruginosa (CiproR); P. aeruginosa (CiproR), 20 isolates, read-out: MIC50): 4 mg/L (≈ 10.9 µM)
- MIC90 (P. aeruginosa (CiproR); P. aeruginosa (CiproR), 20 isolates, read-out: MIC90): 8 mg/L (≈ 21.9 µM)
- MIC50 (S. aureus (CiproS)): 0.03 mg/L (≈ 0.082 µM)
- MIC90 (S. aureus (CiproS)): 0.03 mg/L (≈ 0.082 µM)
- MIC (S. aureus (CiproS); S. aureus (CiproS), 21 isolates, read-out: MIC Range): 0.015 to 0.03 mg/L (≈ 0.041 to 0.082 µM)
- MIC50 (Enterobacter spp.): 0.03 mg/L (≈ 0.082 µM)
- MIC90 (Enterobacter spp.): 0.03 mg/L (≈ 0.082 µM)
- MIC (Enterobacter spp.; read-out: MIC Range): 0.03 to 0.12 mg/L (≈ 0.082 to 0.328 µM)
- MIC50 (C. perfringens): 0.12 mg/L (≈ 0.328 µM)
- MIC90 (C. perfringens; C. perfringens, 13 isolates): 0.12 mg/L (≈ 0.328 µM)
- MIC (C. perfringens; read-out: MIC Range): 0.06 to 0.12 mg/L (≈ 0.164 to 0.328 µM)
- MIC90 (S. pyogenes): 0.06 mg/L (≈ 0.164 µM)
- MIC (S. pyogenes; read-out: MIC Range): 0.06 to 0.12 mg/L (≈ 0.164 to 0.328 µM)
- MIC50 (S. pyogenes; S. pyogenes, 21 isolates, read-out: MIC50): 0.06 mg/L (≈ 0.164 µM)
- MIC90 (B. fragilis): 0.5 mg/L (≈ 1.37 µM)
- MIC (B. fragilis; read-out: MIC Range): 0.06 to 0.5 mg/L (≈ 0.164 to 1.37 µM)
- MIC50 (B. fragilis; B. fragilis, 18 isolates, read-out: MIC50): 0.25 mg/L (≈ 0.683 µM)
- MIC50 (Klebsiella spp.; Klebsiella): 0.03 mg/L (≈ 0.082 µM)
- MIC90 (Klebsiella spp.; Klebsiella): 0.03 mg/L (≈ 0.082 µM)
- MIC (Klebsiella spp.; Klebsiella spp., 29 isolates, read-out: MIC Range): 0.004 to 0.12 mg/L (≈ 0.0109 to 0.328 µM)
- MIC50 (H. influenzae; read-out: MIC50): 0.008 mg/L (≈ 0.0219 µM)
- MIC90 (H. influenzae; read-out: MIC90): 0.008 mg/L (≈ 0.0219 µM)
- MIC (H. influenzae; read-out: MIC Range): 0.004 to 0.008 mg/L (≈ 0.0109 to 0.0219 µM)
- MIC50 (C. freundii): 0.03 mg/L (≈ 0.082 µM)
- MIC90 (C. freundii): 0.12 mg/L (≈ 0.328 µM)
- MIC (C. freundii; read-out: MIC Range): 0.015 to 0.12 mg/L (≈ 0.041 to 0.328 µM)
- MIC50 (E. faecium (CiproS); read-out: MIC50): 1 mg/L (≈ 2.73 µM)
- MIC90 (E. faecium (CiproS); read-out: MIC90): 2 mg/L (≈ 5.47 µM)
- MIC (E. faecium (CiproS); read-out: MIC Range): 0.5 to 8 mg/L (≈ 1.37 to 21.9 µM)
- MIC50 (S. epidermidis (CiproS)): 0.03 mg/L (≈ 0.082 µM)
- MIC90 (S. epidermidis (CiproS)): 0.03 mg/L (≈ 0.082 µM)
- MIC (S. epidermidis (CiproS); S. epidermidis (CiproS), 23 isolates, read-out: MIC Range): 0.015 to 0.06 mg/L (≈ 0.041 to 0.164 µM)
- MIC50 (P. mirabilis): 0.03 mg/L (≈ 0.082 µM)
- MIC90 (P. mirabilis): 0.06 mg/L (≈ 0.164 µM)
- MIC (P. mirabilis; P. mirabilis, 20 isolates, read-out: MIC Range): 0.03 to 0.06 mg/L (≈ 0.082 to 0.164 µM)
- MIC90 (E. faecalis (VanS)): 0.25 mg/L (≈ 0.683 µM)
- MIC (E. faecalis (VanS); read-out: MIC Range): 0.12 to 0.25 mg/L (≈ 0.328 to 0.683 µM)
- MIC50 (E. faecalis (VanS); E. faecalis (VanS), 17 isolates, read-out: MIC50): 0.25 mg/L (≈ 0.683 µM)
- MIC (Salmonella spp.): 0.004 to 0.25 mg/L (≈ 0.0109 to 0.683 µM)
- MIC50 (Salmonella spp.; read-out: MIC50): 0.015 mg/L (≈ 0.041 µM)
- MIC90 (Salmonella spp.; read-out: MIC90): 0.03 mg/L (≈ 0.082 µM)
- MIC (E. coli): 0.008 to 0.03 mg/L (≈ 0.0219 to 0.082 µM)
- MIC50 (E. coli; read-out: MIC50): 0.015 mg/L (≈ 0.041 µM)
- MIC90 (E. coli; read-out: MIC90): 0.015 mg/L (≈ 0.041 µM)
- MIC50 (Enterococcus spp. (VanR); read-out: MIC50): 1 mg/L (≈ 2.73 µM)
- MIC90 (Enterococcus spp. (VanR); read-out: MIC90): 2 mg/L (≈ 5.47 µM)
- MIC (Enterococcus spp. (VanR); read-out: MIC Range): 0.12 to 8 mg/L (≈ 0.328 to 21.9 µM)
- MIC90 (S. pneumoniae (PenR)): 0.25 mg/L (≈ 0.683 µM)
- MIC (S. pneumoniae (PenR); read-out: MIC Range): 0.06 to 0.25 mg/L (≈ 0.164 to 0.683 µM)
- MIC50 (S. pneumoniae (PenR); S. pneumoniae (PenR), 25 isolates, read-out: MIC50): 0.12 mg/L (≈ 0.328 µM)
- MIC (Shigella spp.): 0.008 to 0.015 mg/L (≈ 0.0219 to 0.041 µM)
- MIC90 (S. pneumoniae (PenS)): 0.12 mg/L (≈ 0.328 µM)
- MIC50 (S. pneumoniae (PenS); S. pneumoniae (PenS), 20 isolates, read-out: MIC50): 0.06 mg/L (≈ 0.164 µM)
- MIC (S. pneumoniae (PenS); S. pneumoniae (PenS), 20 isolates, read-out: MIC Range): 0.03 to 0.12 mg/L (≈ 0.082 to 0.328 µM)
- MIC90 (P. aeruginosa (CiproS)): 0.5 mg/L (≈ 1.37 µM)
- MIC50 (P. aeruginosa (CiproS); P. aeruginosa (CiproS), 24 isolates, read-out: MIC50): 0.12 mg/L (≈ 0.328 µM)
- MIC (P. aeruginosa (CiproS); P. aeruginosa (CiproS), 24 isolates, read-out: MIC Range): 0.015 to 0.5 mg/L (≈ 0.041 to 1.37 µM)
- MIC50 (S. aureus (CiproR); read-out: MIC50): 0.5 mg/L (≈ 1.37 µM)
- MIC90 (S. aureus (CiproR); read-out: MIC90): 1 mg/L (≈ 2.73 µM)
- MIC (S. aureus (CiproR); read-out: MIC Range): 0.25 to 2 mg/L (≈ 0.683 to 5.47 µM)
- MIC90 (N. gonorrhoeae): 0.015 mg/L (≈ 0.041 µM)
- MIC50 (N. gonorrhoeae; N. gonorrhoeae, 12 isolates, read-out: MIC50): 0.004 mg/L (≈ 0.0109 µM)
- MIC (N. gonorrhoeae; N. gonorrhoeae, 12 isolates, read-out: MIC Range): 0.004 to 0.015 mg/L (≈ 0.0109 to 0.041 µM)
- MIC50 (S. epidermidis (CiproR); read-out: MIC50): 0.5 mg/L (≈ 1.37 µM)
- MIC90 (S. epidermidis (CiproR); read-out: MIC90): 1 mg/L (≈ 2.73 µM)
- MIC (S. epidermidis (CiproR); read-out: MIC Range): 0.25 to 2 mg/L (≈ 0.683 to 5.47 µM)
- MIC90 (M. avium): 32 mg/L (≈ 87.5 µM)
- MIC50 (M. avium; M. avium, 20 isolates, read-out: MIC50): 16 mg/L (≈ 43.7 µM)
- MIC (E. faecium (CiproR)): 2 to 8 mg/L (≈ 5.47 to 21.9 µM)
- MIC (M. pneumoniae): 0.015 to 0.03 mg/L (≈ 0.041 to 0.082 µM)
- MIC90 (H. pylori): 0.03 mg/L (≈ 0.082 µM)
- MIC50 (H. pylori; H. pylori, 17 isolates, read-out: MIC50): 0.015 mg/L (≈ 0.041 µM)
- MIC (H. pylori; H. pylori, 17 isolates, read-out: MIC Range): 0.008 to 0.03 mg/L (≈ 0.0219 to 0.082 µM)
- MIC (S. pneumoniae (CiproR)): 0.12 mg/L (≈ 0.328 µM)
- MIC90 (C. difficile): 0.25 mg/L (≈ 0.683 µM)
- MIC (C. difficile; read-out: MIC Range): 0.12 to 0.25 mg/L (≈ 0.328 to 0.683 µM)
- MIC50 (C. difficile; C. difficile, 10 isolates, read-out: MIC50): 0.25 mg/L (≈ 0.683 µM)
